Measured values as given in patent US4435583A, “2-Halo-substituted monic acid A useful as antibacterial compounds” (Beecham Group p.l.c., priority 1981, dated 1984).
Converted amounts (≈) assume the structure as drawn.

What was measured:
Type in all cases: cell-based
[1] = system: Ps. aeruginosa NCTC 10662; assay: MIC against human bacteria; conditions: Pseudomonas aeruginosa, NCTC10662, nutrient agar, 5% chocolated horse blood, 18 hours, 37° C., read-out: MIC
Method: (§1) The values were determined by serial dilutions in nutrient agar with 5% chocolated horse blood after incubations for 18 hours at 37° C.

Strep. 641848-C = assay: MIC against human bacteria; conditions: 18 h, nutrient agar, 5% chocolated horse blood, 37° C., read-out: MIC
Method: as §1

E. coli NCTC 10418 [2] = assay: MIC against human bacteria; conditions: Escherichia coli, NCTC10418, nutrient agar, 5% chocolated horse blood, 18 hours, 37° C., read-out: MIC
Method: as §1

Staph. aureus W2827 = assay: MIC against human bacteria; conditions: Staphylococcus aureus, W2827, 18 h, nutrient agar, 5% chocolated horse blood, 37° C., read-out: MIC
Method: as §1

Bacillus subtilis 6633 = assay: MIC against human bacteria; conditions: Bacillus subtilis, 6633, 18 h, nutrient agar, 5% chocolated horse blood, 37° C., read-out: MIC
Method: as §1

K. aerogenes A = assay: MIC against human bacteria; conditions: Klebsiella aerogenes, nutrient agar, 5% chocolated horse blood, 18 hours, 37° C., read-out: MIC
Method: as §1

Strep. faecalis I = assay: MIC against human bacteria; conditions: Enterococcus faecalis, nutrient agar, 5% chocolated horse blood, 18 hours, 37° C., read-out: MIC
Method: as §1

[3] = system: Neisseria catarrhalis 1502; assay: MIC against human bacteria; conditions: Neisseria, 1502, 18 h, nutrient agar, 5% chocolated horse blood, 37° C., read-out: MIC
Method: as §1

Strep. 2788-B = assay: MIC against human bacteria; conditions: 18 h, nutrient agar, 5% chocolated horse blood, 37° C., read-out: MIC
Method: as §1

Strep. pneumoniae CN33 = assay: MIC against human bacteria; conditions: Streptococcus pneumoniae, CN33, 18 h, nutrient agar, 5% chocolated horse blood, 37° C., read-out: MIC
Method: as §1

Staph. aureus Oxford [4] = assay: MIC against human bacteria; conditions: Staphylococcus aureus, 18 h, nutrient agar, 5% chocolated horse blood, 37° C., read-out: MIC
Method: as §1

E. coli ESS = assay: MIC against human bacteria; conditions: Escherichia coli, 18 h, nutrient agar, 5% chocolated horse blood, 37° C., read-out: MIC
Method: as §1

[5] = system: Haemophilus influenzae Q1; assay: MIC against human bacteria; conditions: nutrient agar, 5% chocolated horse blood, 18 hours, 37° C., read-out: MIC
Method: as §1

[6] = system: Corynebacterium xerosis 9755; assay: MIC against human bacteria; conditions: nutrient agar, 5% chocolated horse blood, 18 hours, 37° C., read-out: MIC
Method: as §1

Sarcina lutea 8340 = assay: MIC against human bacteria; conditions: Micrococcus luteus, nutrient agar, 5% chocolated horse blood, 18 hours, 37° C., read-out: MIC
Method: as §1

P. mirabilis 889 = assay: MIC against human bacteria; conditions: Proteus mirabilis, nutrient agar, 5% chocolated horse blood, 18 hours, 37° C., read-out: MIC
Method: as §1

[7] = system: Strep. pyrogenes R80/421-A; assay: MIC against human bacteria; conditions: 18 h, nutrient agar, 5% chocolated horse blood, 37° C., read-out: MIC
Method: as §1

Past. multocida 1633 = assay: MIC against human bacteria; conditions: Pasteurella multocida, 1633, 18 h, nutrient agar, 5% chocolated horse blood, 37° C., read-out: MIC
Method: as §1

Staph. aureus Russell = assay: MIC against human bacteria; conditions: Staphylococcus aureus, 18 h, nutrient agar, 5% chocolated horse blood, 37° C., read-out: MIC
Method: as §1

E. coli NCTC 10418 [8] = assay: MIC against veterinary bacteria; conditions: Escherichia coli, NCTC10418, Diagnostic Sensitivity Test Agar, 18 hours, 37° C., read-out: MIC
Method: (§2) The values were determined using a two fold serial dilutions in Diagnostic Sensitivity Test Agar with an inoculum of 10^4 organisms and incubation for 18 hours at 37° C.

S. typhimurium S18 = assay: MIC against veterinary bacteria; conditions: Salmonella enterica, Diagnostic Sensitivity Test Agar, 18 hours, 37° C., read-out: MIC
Method: as §2

E. coli E1 = assay: MIC against veterinary bacteria; conditions: Escherichia coli, Diagnostic Sensitivity Test Agar, 18 hours, 37° C., read-out: MIC
Method: as §2

S. dublin S7 = assay: MIC against veterinary bacteria; conditions: Salmonella enterica, Diagnostic Sensitivity Test Agar, 18 hours, 37° C., read-out: MIC
Method: as §2

Bord. bronchiseptica B09 = assay: MIC against veterinary bacteria; conditions: Bordetella bronchiseptica, B09, 18 h, Diagnostic Sensitivity Test Agar, 37° C., read-out: MIC
Method: as §2

Strep. dysgalactiae SPD1 = assay: MIC against veterinary bacteria; conditions: Streptococcus dysgalactiae, SPD1, 18 h, Diagnostic Sensitivity Test Agar, 37° C., read-out: MIC
Method: as §2

[9] = system: Strep. suis (group D) SPS11; assay: MIC against veterinary bacteria; conditions: Streptococcus suis, 18 h, Diagnostic Sensitivity Test Agar, 37° C., read-out: MIC
Method: as §2

[10] = system: Erysipelothrix rhusiopathiae NCTC 8163; assay: MIC against veterinary bacteria; conditions: NCTC8163, Diagnostic Sensitivity Test Agar, 18 hours, 37° C., read-out: MIC
Method: as §2

Past. multocida PA2 = assay: MIC against veterinary bacteria; conditions: Pasteurella multocida, PA2, 18 h, Diagnostic Sensitivity Test Agar, 37° C., read-out: MIC
Method: as §2

Strep. agalactiae SPA1 = assay: MIC against veterinary bacteria; conditions: Streptococcus agalactiae, SPA1, 18 h, Diagnostic Sensitivity Test Agar, 37° C., read-out: MIC
Method: as §2

Staph. aureus Oxford [11] = assay: MIC against veterinary bacteria; conditions: Staphylococcus aureus, 18 h, Diagnostic Sensitivity Test Agar, 37° C., read-out: MIC
Method: as §2

[12] = system: Corynebacterium pyogenes CY1; assay: MIC against veterinary bacteria; conditions: Rhodococcus (subgen. Prescottella) equi, Diagnostic Sensitivity Test Agar, 18 hours, 37° C., read-out: MIC
Method: as §2

Staph. aureus 152 = assay: MIC against veterinary bacteria; conditions: Staphylococcus aureus, 152, 18 h, Diagnostic Sensitivity Test Agar, 37° C., read-out: MIC
Method: as §2

Staph. aureus B4 = assay: MIC against veterinary bacteria; conditions: Staphylococcus aureus, B4, 18 h, Diagnostic Sensitivity Test Agar, 37° C., read-out: MIC
Method: as §2

Past. haemolytica PA5 = assay: MIC against veterinary bacteria; conditions: Mannheimia haemolytica, PA5, 18 h, Diagnostic Sensitivity Test Agar, 37° C., read-out: MIC
Method: as §2

Strep. uberis SPU1 = assay: MIC against veterinary bacteria; conditions: Streptococcus uberis, SPU1, 18 h
Method: as §2

Bord. bronchiseptica B08 = assay: MIC against veterinary bacteria; conditions: Bordetella bronchiseptica, B08, 18 h, Diagnostic Sensitivity Test Agar, 37° C., read-out: MIC
Method: as §2

Past. multocida PA1 = assay: MIC against veterinary bacteria; conditions: Pasteurella multocida, PA1, 18 h, Diagnostic Sensitivity Test Agar, 37° C., read-out: MIC
Method: as §2

With `CC(CC1OCC(CC2OC2C(C)C(C)O)C(O)C1O)=C(F)C(=O)OCc1cccc([N+](=O)[O-])c1` [Example 4, 3-Nitrobenzyl 4-[5S-(2S,3S-epoxy-5S-hydroxy-4S-methylhexyl)-3R,4R-dihydroxytetrahydropyran-2S-yl]-2-fluoro-3-methylbut-2(Z)-enoate] the MIC [1] was > 100 µg/mL, the MIC (Strep. 641848-C) was 0.5 µg/mL (≈ 1 µM) and the MIC (E. coli NCTC 10418 [2]) was > 100 µg/mL. For the same molecule, the MIC (Staph. aureus W2827) was 2.5 µg/mL (≈ 5.02 µM), the MIC (Bacillus subtilis 6633) was 0.5 µg/mL (≈ 1 µM) and the MIC (K. aerogenes A) was > 100 µg/mL. The MIC (Strep. faecalis I) was > 100 µg/mL, the MIC [3] was 0.5 µg/mL (≈ 1 µM) and the MIC (Strep. 2788-B) was 2.5 µg/mL (≈ 5.02 µM). The MIC (Strep. pneumoniae CN33) was 0.5 µg/mL (≈ 1 µM), the MIC (Staph. aureus Oxford [4]) was 2.5 µg/mL (≈ 5.02 µM) and the MIC (E. coli ESS) was 1 µg/mL (≈ 2.01 µM). For the same molecule, the MIC [5] was 0.5 µg/mL (≈ 1 µM), the MIC [6] was > 100 µg/mL and the MIC (Sarcina lutea 8340) was > 100 µg/mL. For the same molecule, the MIC (P. mirabilis 889) was > 100 µg/mL, the MIC [7] was 0.5 µg/mL (≈ 1 µM) and the MIC (Past. multocida 1633) was 2.5 µg/mL (≈ 5.02 µM). For the same molecule, the MIC (Staph. aureus Russell) was 2.5 µg/mL (≈ 5.02 µM), the MIC (E. coli NCTC 10418 [8]) was > 80 µg/mL and the MIC (S. typhimurium S18) was > 80 µg/mL. For the same molecule, the MIC (E. coli E1) was > 80 µg/mL, the MIC (S. dublin S7) was > 80 µg/mL and the MIC (Bord. bronchiseptica B09) was 10 µg/mL (≈ 20.1 µM). The MIC (Strep. dysgalactiae SPD1) was 0.312 µg/mL (≈ 0.627 µM), the MIC [9] was 5 µg/mL (≈ 10 µM) and the MIC [10] was 80 µg/mL (≈ 161 µM). For the same molecule, the MIC (Past. multocida PA2) was 0.312 µg/mL (≈ 0.627 µM), the MIC (Strep. agalactiae SPA1) was 1.25 µg/mL (≈ 2.51 µM) and the MIC (Staph. aureus Oxford [11]) was 1.25 µg/mL (≈ 2.51 µM). For the same molecule, the MIC [12] was 80 µg/mL (≈ 161 µM), the MIC (Staph. aureus 152) was 1.25 µg/mL (≈ 2.51 µM) and the MIC (Staph. aureus B4) was 2.5 µg/mL (≈ 5.02 µM). For the same molecule, the MIC (Past. haemolytica PA5) was 10 µg/mL (≈ 20.1 µM), the MIC (Strep. uberis SPU1) was 0.156 µg/mL (≈ 0.314 µM) and the MIC (Bord. bronchiseptica B08) was 80 µg/mL (≈ 161 µM). For the same molecule, the MIC (Past. multocida PA1) was 0.625 µg/mL (≈ 1.26 µM).
